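Following 48 hours of exposure in 96-well plates, responses at five concentrations were used to interpolate endpoints linearly. TGI marks complete inhibition of growth.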
What was measured:
Test in all cases: DTP human tumour cell line panel, 48 h
ACHN renal = system: ACHN renal
HOP-62 NSCLC = system: HOP-62 NSCLC
HOP-92 NSCLC = system: HOP-92 NSCLC
HS 578T breast = system: HS 578T breast
HT29 colon = system: HT29 colon
K-562 leukemia = system: K-562 leukemia
MCF7 breast = system: MCF7 breast
NCI-H23 lung = system: NCI-H23 lung
OVCAR-8 ovarian = system: OVCAR-8 ovarian
RXF 393 renal = system: RXF 393 renal
SNB-19 CNS = system: SNB-19 CNS
TK-10 renal = system: TK-10 renal
UACC-62 melanoma = system: UACC-62 melanoma
SF-268 CNS = system: SF-268 CNS
SK-OV-3 ovarian = system: SK-OV-3 ovarian
SF-539 CNS = system: SF-539 CNS

| SMILES | TGI (ACHN renal) [µM] | TGI (HOP-62 NSCLC) [µM] | TGI (HOP-92 NSCLC) [µM] | TGI (HS 578T breast) [µM] | TGI (HT29 colon) [µM] | TGI (K-562 leukemia) [µM] | TGI (MCF7 breast) [µM] | TGI (NCI-H23 lung) [µM] | TGI (OVCAR-8 ovarian) [µM] | TGI (RXF 393 renal) [µM] | TGI (SNB-19 CNS) [µM] | TGI (TK-10 renal) [µM] | TGI (UACC-62 melanoma) [µM] | TGI (SF-268 CNS) [µM] | TGI (SK-OV-3 ovarian) [µM] | TGI (SF-539 CNS) [µM] |
| --- | --- | --- | --- | --- | --- | --- | --- | --- | --- | --- | --- | --- | --- | --- | --- | --- |
| O=C1NC(=O)C(C(c2ccc(Cl)cc2)C2C(=O)NC(=O)NC2=O)C(=O)N1 | > 100 | > 100 | > 100 | > 100 | > 100 | > 100 | > 100 | > 100 | > 100 | > 100 | > 100 | > 100 | > 100 | – | – | – |
| O=C1c2ccccc2C(=O)N1CCCCCCNOCCCN1C(=O)c2ccccc2C1=O | > 100 | > 100 | > 100 | > 100 | > 100 | 98.2 | 88.4 | 97.1 | > 100 | > 100 | > 100 | > 100 | 50.3 | > 100 | > 100 | – |
| CSc1nc2c(N)ncnc2n1C | > 100 | > 100 | – | > 100 | > 100 | > 100 | > 100 | – | > 100 | > 100 | > 100 | > 100 | > 100 | > 100 | > 100 | > 100 |
| O=C(Nc1ccccc1C(=O)O)/C(=C/c1ccccc1)NC(=O)c1ccccc1 | > 100 | > 100 | > 100 | > 100 | > 100 | > 100 | > 100 | > 100 | > 100 | > 100 | > 100 | – | > 100 | > 100 | > 100 | > 100 |
| O=[N+]([O-])c1cccc2nc3ccccc3c(NCCCN3CCOCC3)c12 | 0.0506 | 0.0618 | 0.0434 | > 100 | 0.0349 | – | 0.103 | 0.0418 | 0.141 | 0.0294 | 0.177 | 0.149 | 0.0326 | 0.744 | 0.267 | 0.138 |
| O=C1CC(=O)c2c(Cl)sc(Cl)c21 | > 100 | > 100 | > 100 | 93.9 | > 100 | > 100 | > 100 | > 100 | > 100 | 86.2 | – | > 100 | > 100 | > 100 | > 100 | > 100 |
| CN(C)CCNC(=O)c1cccc2nc3cccc(F)c3nc12 | 3.56 | 8.55 | 3.63 | 9.27 | 8.34 | 12.3 | 6.56 | 5.17 | 3.68 | 4.11 | > 35 | 6.45 | > 19.8 | 19.4 | – | 7.7 |
| CCOC(=O)c1cc2c([nH]1)C(=O)CC1=C2CCN1Cc1ccccc1 | 25.6 | – | 28.3 | 57.4 | 30.8 | 25.9 | 32.3 | 29.6 | 46.6 | 30.5 | 31.8 | 30 | 28.4 | 43.6 | 37.1 | 39.4 |
| Cc1c(C(=O)O)c2cc3ccccc3cc2c(=O)n1C | > 10 | – | > 10 | > 10 | > 10 | – | > 10 | > 10 | > 10 | > 10 | > 10 | > 10 | > 10 | > 10 | > 10 | > 10 |
| CC(=O)OCC12C(OC(C)=O)C[C@@H](C)C3(CC(c4ccoc4)OC3=O)C1CCC(O)C21CO1 (stereo partly drawn) | > 100 | > 100 | > 100 | > 100 | > 100 | > 100 | > 100 | > 100 | > 100 | > 100 | > 100 | > 100 | > 100 | > 100 | – | > 100 |
| Cc1c[nH]c(C(=O)O)c1-c1ccc2c(-c3ccccc3)nc3ccccc3n12 | > 100 | 46.4 | > 100 | 67.3 | 70.5 | > 100 | > 100 | > 100 | > 100 | 55.2 | – | > 100 | 42.5 | > 100 | > 100 | 49.3 |
| CN(C)c1ccc(/C=C(\NC(=O)c2ccccc2)C(=O)Nc2ccccc2C(=O)O)cc1 | > 100 | > 100 | > 100 | > 100 | > 100 | > 100 | > 100 | > 100 | > 100 | > 100 | > 100 | – | > 100 | > 100 | > 100 | > 100 |
| Nc1nc(NNc2ccc(Cl)c(Cl)c2)cc(=O)[nH]1 | > 100 | > 100 | 79.8 | > 100 | > 100 | 54.7 | 72.5 | > 100 | > 100 | 67.5 | > 100 | > 100 | – | > 100 | – | > 100 |
| CN1CCN(C(=S)N(C(=O)c2ccco2)c2ccccc2)CC1 | > 100 | – | > 100 | > 100 | > 100 | > 100 | > 100 | > 100 | > 100 | > 100 | > 100 | > 100 | > 100 | > 100 | – | – |
| CC(C)CC(=O)NC(NC(C)C)(C(F)(F)F)C(F)(F)F | > 100 | > 100 | > 100 | > 100 | > 100 | > 100 | > 100 | – | > 100 | > 100 | > 100 | > 100 | > 100 | > 100 | – | > 100 |
| N=C(N)n1[nH]c2c(c1=O)CCCC2 | > 100 | > 100 | – | > 100 | > 100 | > 100 | > 100 | > 100 | > 100 | > 100 | > 100 | > 100 | > 100 | > 100 | > 100 | > 100 |
| CN(C)CCCNc1nnc(NCCCN(C)C)c2c(=O)c3sccc3[nH]c12 | > 100 | > 100 | > 100 | > 88.6 | – | > 34.7 | > 100 | > 100 | > 100 | 42.1 | > 100 | > 100 | 23.7 | 25.7 | > 100 | 30.1 |
| Cc1ccc2c(c1)[nH]c(=S)n2C=C1C(=O)CC(C)(C)CC1=O | > 100 | > 100 | > 100 | > 100 | > 100 | – | > 100 | > 100 | > 100 | > 100 | > 100 | > 100 | > 100 | > 100 | > 100 | > 100 |
| Cc1ccc(-n2c(Cn3nnc(-c4cccnc4)n3)nn(C3OC(COC(=O)c4ccccc4)C(OC(=O)c4ccccc4)C3OC(=O)c3ccccc3)c2=S)cc1 (stereo not drawn) | > 100 | > 100 | – | > 100 | > 100 | > 100 | > 100 | > 100 | > 100 | > 100 | > 100 | > 100 | > 100 | > 100 | > 100 | > 100 |
| CCCCCC(=O)OCC1(CO)C/C(=C\CC(C(C)C)C(C)C)C(=O)O1 (stereo not drawn) | > 100 | > 100 | > 100 | > 100 | > 100 | 77.5 | > 100 | > 100 | 76.2 | > 100 | > 100 | > 100 | > 100 | > 100 | > 100 | – |
| Cc1cc2c(cc1C)[n+](=O)c(N1CCN(c3ccc([N+](=O)[O-])cc3)CC1)c(C#N)n2[O-] | 50.8 | 31.7 | 56.7 | > 100 | > 100 | – | > 100 | > 100 | 49.8 | 29.9 | 49.6 | 35.3 | 59.9 | > 100 | 30.9 | – |
| C#CCOC(=O)C(N)CSSCC(N)C(=O)O (stereo not drawn) | > 100 | > 100 | > 100 | > 100 | – | – | > 100 | > 100 | > 100 | > 100 | > 100 | > 100 | > 100 | > 100 | – | > 100 |
| Oc1c(-c2ccccc2)sc2ccccc12 | > 100 | 45.8 | 57.7 | > 100 | 81.6 | 67.5 | 65.8 | 77.5 | > 100 | 45.1 | > 100 | > 100 | > 100 | > 100 | – | > 100 |
| c1ccc2c3c([nH]c2c1)C1c2[nH]c4ccccc4c2CCN1CC3 | 27.1 | 27.8 | 15.4 | 44.7 | 26.7 | – | 30.8 | 28.2 | 26.9 | 27 | – | 23.2 | 33.9 | 30.3 | 27.1 | 31.3 |

Reference: PubChem BioAssay (NCI)
